The results in this text go back to patent publication US11833211B2, “Methods of suppression and treatment of disease comprising administering bicycle peptide ligands specific for EphA2” (BicycleTx Limited, priority 2017, dated 2023).

In data set [1] the target is T1, human EphA2 (Homo sapiens, UniProt P29317).
T1 construct: EphA2 (Ecto); polyHis (C); purchased R&D systems (or In-house)
The experiment in a line: Fluorescence polarisation competition binding assay (Study 1). (In general: In fluorescence polarisation assays a small probe gives low polarisation when free and higher when bound to something large.)

Data set [2] deals with PC-3 xenograft. The experiment in a line: Study 8: in vivo efficacy in PC-3 xenograft. More on the design: species or system Mus Musculus. The note with it: 15 mg/kg.
Data set [3] deals with T2, rat EphA2 (Rattus norvegicus, UniProt D3ZBN3).
T2 construct: polyHis (C); made in house
T2 sequence (D3ZBN3 27-205): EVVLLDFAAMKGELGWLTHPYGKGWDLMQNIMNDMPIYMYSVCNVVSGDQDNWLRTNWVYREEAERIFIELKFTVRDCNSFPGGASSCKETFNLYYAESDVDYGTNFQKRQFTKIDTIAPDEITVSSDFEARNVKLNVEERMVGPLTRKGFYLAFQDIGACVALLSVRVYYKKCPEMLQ
The experiment in a line: Fluorescence polarisation competition binding, alternative protocol (Study 2).

The target in data set [4] is T3, mouse EphA2 (Mus musculus, UniProt Q03145).
T3 construct: EphA2 (Ecto)
T3 sequence (Q03145 26-538 limits assumed): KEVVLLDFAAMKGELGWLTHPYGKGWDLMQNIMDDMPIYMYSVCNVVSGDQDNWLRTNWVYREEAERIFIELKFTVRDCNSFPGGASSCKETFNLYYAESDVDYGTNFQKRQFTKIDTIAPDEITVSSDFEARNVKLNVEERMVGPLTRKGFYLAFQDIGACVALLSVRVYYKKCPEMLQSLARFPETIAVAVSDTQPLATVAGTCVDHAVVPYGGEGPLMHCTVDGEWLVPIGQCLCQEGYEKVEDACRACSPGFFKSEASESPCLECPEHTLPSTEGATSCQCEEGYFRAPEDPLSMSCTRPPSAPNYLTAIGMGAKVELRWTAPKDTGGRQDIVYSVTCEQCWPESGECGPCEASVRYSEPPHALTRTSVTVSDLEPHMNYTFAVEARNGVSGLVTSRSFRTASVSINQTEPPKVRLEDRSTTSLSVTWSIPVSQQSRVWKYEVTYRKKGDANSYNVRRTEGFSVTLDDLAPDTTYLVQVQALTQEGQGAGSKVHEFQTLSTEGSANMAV
It counts as binding.

T1 sequence (P29317 24-537 limits assumed): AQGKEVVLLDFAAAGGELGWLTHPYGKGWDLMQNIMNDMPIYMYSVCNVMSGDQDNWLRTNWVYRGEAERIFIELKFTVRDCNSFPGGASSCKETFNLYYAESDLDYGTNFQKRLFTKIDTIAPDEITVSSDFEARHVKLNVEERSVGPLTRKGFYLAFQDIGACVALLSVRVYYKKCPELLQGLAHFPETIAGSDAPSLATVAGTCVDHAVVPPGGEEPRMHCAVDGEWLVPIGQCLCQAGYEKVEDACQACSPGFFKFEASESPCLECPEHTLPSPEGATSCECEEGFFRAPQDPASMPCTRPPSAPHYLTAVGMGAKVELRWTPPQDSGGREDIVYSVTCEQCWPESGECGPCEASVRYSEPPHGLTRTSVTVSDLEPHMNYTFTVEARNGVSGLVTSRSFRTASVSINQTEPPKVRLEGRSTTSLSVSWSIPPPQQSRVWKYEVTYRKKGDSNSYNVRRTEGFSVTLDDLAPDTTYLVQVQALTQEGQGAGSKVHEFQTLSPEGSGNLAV

Take `COc1cc2cc(c1Cl)N(C)C(=O)C[C@@H](OC(=O)[C@@H](C)N(C)C(=O)CCSSC(C)CCC(=O)NCCC(=O)N(C)CC(=O)N(C)CC(=O)N(C)CC(=O)N(C)CC(=O)N(C)CC(=O)N(C)CC(=O)N(C)CC(=O)N(C)CC(=O)N(C)CC(=O)N(C)CC(=O)N[C@@H](C)C(=O)N[C@@H](CCCCNC(=N)N)C(=O)N[C@@H](CC(=O)O)C(=O)N[C@H]1CSCCC(=O)N3CN4CN(C3)C(=O)CCSC[C@H](NC(=O)[C@H](CC(C)C)NC(=O)[C@@H]3CCCN3C(=O)[C@H](CC(N)=O)NC(=O)[C@H](C(C)C)NC(=O)[C@H](CC(C)C)NC(=O)[C@@H]3C[C@@H](O)CN3C1=O)C(=O)N[C@@H](CC(C)C)C(=O)N[C@@H](Cc1c[nH]cn1)C(=O)N1CCC[C@H]1C(=O)N[C@H](CC(=O)O)C(=O)N[C@@H](Cc1c[nH]c3ccccc13)C(=O)N[C@@H](CCCCNC(=N)N)C(=O)N[C@H](C(N)=O)CSCCC4=O)[C@@]1(C)O[C@@H]1[C@@H](C)[C@H]1C[C@](O)(NC(=O)O1)C(OC)/C=C/C=C(\C)C2` (stereo partly drawn) [BCY6028]: the “competition binding in the EphA2 competition binding assay (in words)” value in data set [1] is reported as “excellent competition binding”.
On to `CC(=O)O[C@@]12CO[C@@H]1C[C@H](O)[C@@]1(C)C(=O)[C@H](O)C3=C(C)[C@@H](OC(=O)[C@H](O)[C@@H](NC(=O)OC(C)(C)C)c4ccccc4)C[C@@](O)([C@@H](OC(=O)c4ccccc4)[C@H]21)C3(C)C` [Docetaxel], for which the body weight entry in data set [2] (after the first dosing) was “severe animal body weight loss”. Further, in data set [2] (qw), the “anti-tumor activity (in words)” value is “significant anti-tumor activity” and the “tumor relapse after ceasing the treatment” value was “obvious tumor relapse”.
For the compound “(β-Ala)-Sar10-A(HArg)D-Ci(HyP)LVNPLCiiLHP(D-Asp)W(HArg)Ciii [BCY6099]”, the “affinity to rat EphA2 (in words)” value in data set [3] is given as “high affinity”. Moreover, the “affinity to mouse EphA2 (in words)” value in data set [4] was “high affinity”.
